Values quoted from earlier work, collected in US20230000814A1, “PHARMACEUTICAL COMPOSITION COMPRISING STEROID COMPOUND AND OLOPATADINE” (TOKO YAKUHIN KOGYO CO., LTD., priority 2019, published 2023).
Read-outs that look alike come from different tables or passages of the source.

- solubility of olopatadine (around neutral pH): very low
- solubility of olopatadine (concentration 0.2% or more as olopatadine free base, solution having pH of 5 or higher): not soluble
SMILES: CN(C)CC/C=C1/c2ccccc2COc2ccc(CC(=O)O)cc21 [olopatadine, Olopatadine]
